These results are taken from ChEMBL document CHEMBL1201862, “PubChem BioAssay data set” (2004).

Each structure is given as a SMILES string. Calls of active or inactive are those of the source.

In assay [1] the target is T1, Sentrin-specific protease 8 (Homo sapiens, UniProt Q96LD8).
T1 sequence (Q96LD8 whole entry): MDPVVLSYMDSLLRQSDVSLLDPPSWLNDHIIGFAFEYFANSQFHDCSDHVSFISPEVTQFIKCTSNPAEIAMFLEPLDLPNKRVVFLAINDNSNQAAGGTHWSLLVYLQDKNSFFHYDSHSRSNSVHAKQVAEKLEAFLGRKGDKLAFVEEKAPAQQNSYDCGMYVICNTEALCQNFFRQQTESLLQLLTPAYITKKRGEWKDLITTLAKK
It counts as functional.

The target of assay [2] is T2, Sentrin-specific protease 7 (Homo sapiens, UniProt Q9BQF6).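 Note: Luminescence-based dose-response confirmation of ultra-high-throughput screening hits, measuring inhibition of SENP7.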
T2 sequence (Q9BQF6 whole entry): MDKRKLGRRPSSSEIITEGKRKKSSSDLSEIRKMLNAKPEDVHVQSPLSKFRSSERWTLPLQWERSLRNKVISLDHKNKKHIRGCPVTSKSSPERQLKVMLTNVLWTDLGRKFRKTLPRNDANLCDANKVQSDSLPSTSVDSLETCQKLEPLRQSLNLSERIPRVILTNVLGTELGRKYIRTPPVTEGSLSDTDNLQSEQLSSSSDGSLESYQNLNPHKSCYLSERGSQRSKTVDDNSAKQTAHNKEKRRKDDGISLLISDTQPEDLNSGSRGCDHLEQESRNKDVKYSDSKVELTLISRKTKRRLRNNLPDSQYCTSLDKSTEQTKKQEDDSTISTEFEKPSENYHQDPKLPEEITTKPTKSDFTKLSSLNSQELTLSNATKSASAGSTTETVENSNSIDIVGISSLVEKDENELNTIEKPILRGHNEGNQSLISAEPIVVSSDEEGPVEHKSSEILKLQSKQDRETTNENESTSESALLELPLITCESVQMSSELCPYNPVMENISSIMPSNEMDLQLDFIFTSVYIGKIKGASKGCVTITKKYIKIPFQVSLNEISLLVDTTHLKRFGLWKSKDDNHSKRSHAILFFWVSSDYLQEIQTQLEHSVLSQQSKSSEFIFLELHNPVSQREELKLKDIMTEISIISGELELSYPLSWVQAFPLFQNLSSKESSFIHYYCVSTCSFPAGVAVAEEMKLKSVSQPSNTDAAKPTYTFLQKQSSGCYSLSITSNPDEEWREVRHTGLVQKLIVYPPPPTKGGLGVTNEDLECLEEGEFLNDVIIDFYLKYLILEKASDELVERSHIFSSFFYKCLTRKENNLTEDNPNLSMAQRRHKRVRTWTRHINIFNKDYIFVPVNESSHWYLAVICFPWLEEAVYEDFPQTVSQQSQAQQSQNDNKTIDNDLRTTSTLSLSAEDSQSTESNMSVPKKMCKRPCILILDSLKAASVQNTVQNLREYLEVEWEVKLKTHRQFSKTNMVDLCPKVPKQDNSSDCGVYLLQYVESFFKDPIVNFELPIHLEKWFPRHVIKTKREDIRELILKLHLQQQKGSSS
It counts as functional.

Assay [3] deals with T1, Sentrin-specific protease 8. It counts as functional. The source holds these as a separate data set.
Assay [4] deals with T3, Sentrin-specific protease 6 (Homo sapiens, UniProt Q9GZR1).
T3 sequence (Q9GZR1 whole entry): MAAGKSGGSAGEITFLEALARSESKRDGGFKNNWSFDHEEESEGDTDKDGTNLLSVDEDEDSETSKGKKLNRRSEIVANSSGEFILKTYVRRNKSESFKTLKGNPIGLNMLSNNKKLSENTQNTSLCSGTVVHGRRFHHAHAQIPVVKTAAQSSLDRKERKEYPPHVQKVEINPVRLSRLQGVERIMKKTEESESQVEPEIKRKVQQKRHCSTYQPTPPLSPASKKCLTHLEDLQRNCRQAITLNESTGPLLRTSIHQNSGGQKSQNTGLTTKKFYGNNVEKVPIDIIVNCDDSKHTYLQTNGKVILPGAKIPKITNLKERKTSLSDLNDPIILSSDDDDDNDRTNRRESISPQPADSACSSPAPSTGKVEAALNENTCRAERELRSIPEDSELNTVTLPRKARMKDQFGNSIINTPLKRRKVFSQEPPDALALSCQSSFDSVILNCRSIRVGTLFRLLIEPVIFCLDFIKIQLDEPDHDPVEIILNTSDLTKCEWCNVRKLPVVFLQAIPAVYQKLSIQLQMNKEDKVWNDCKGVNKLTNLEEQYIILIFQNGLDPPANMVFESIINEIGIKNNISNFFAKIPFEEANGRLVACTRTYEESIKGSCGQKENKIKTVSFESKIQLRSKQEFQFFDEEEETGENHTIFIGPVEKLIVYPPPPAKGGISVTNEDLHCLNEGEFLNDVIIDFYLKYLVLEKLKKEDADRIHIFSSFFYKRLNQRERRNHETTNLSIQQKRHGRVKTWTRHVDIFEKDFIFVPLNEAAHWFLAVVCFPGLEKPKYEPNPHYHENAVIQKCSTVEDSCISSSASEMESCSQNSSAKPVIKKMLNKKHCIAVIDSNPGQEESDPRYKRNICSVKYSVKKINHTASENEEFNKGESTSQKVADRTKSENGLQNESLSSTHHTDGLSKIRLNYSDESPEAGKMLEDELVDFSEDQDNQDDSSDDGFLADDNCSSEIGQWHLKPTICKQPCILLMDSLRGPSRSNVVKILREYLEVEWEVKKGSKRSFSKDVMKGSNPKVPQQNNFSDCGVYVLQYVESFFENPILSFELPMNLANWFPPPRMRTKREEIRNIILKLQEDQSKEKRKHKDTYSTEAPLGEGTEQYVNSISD
It counts as functional.

The target of the next assay is T4, Caspase-6 (Homo sapiens, UniProt P55212).
T4 sequence (P55212 whole entry): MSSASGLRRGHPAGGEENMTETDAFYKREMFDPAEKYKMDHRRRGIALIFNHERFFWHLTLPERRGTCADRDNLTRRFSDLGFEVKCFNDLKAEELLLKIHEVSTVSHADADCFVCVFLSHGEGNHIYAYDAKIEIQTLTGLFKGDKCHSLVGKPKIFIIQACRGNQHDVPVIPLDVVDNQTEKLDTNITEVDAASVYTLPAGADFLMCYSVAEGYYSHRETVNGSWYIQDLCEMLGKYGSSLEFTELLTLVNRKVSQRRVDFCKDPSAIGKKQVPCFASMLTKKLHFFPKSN
The experiment in a line: human caspase-6 inhibitors, dose response, biochemical, VEID-R110 fluorescence, cherry-pick (AID 720632).

For assay [5], the target named is T1, Sentrin-specific protease 8. It is filed as functional. This is another data set of the same source.
In a further assay the target is T5, Caspase-3 (Homo sapiens, UniProt P42574).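 Note: Dose-response selectivity test against caspase-3 for candidate inhibitors of sentrin-specific proteases (SENPs).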
T5 sequence (P42574 whole entry): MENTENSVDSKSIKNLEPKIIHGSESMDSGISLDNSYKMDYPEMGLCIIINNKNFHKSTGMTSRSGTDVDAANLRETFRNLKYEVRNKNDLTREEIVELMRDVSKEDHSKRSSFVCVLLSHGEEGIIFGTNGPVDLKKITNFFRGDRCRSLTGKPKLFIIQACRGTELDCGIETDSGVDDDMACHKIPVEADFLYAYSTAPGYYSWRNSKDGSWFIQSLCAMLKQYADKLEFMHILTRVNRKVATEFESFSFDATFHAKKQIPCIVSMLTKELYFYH
It counts as functional.

Assay [6] can be described thus: Counterscreen for inhibitors of Trypanosoma brucei methionyl tRNA synthetase (MetRS): Luminescence-based cell-based high throughput dose response assay to identify compounds that are cytotoxic to Jurkat human T lymphocyte cells. It is filed as functional. (In general: Counterscreens check selectivity or assay interference.)
In assay [7] the target is T6, Methionyl-tRNA synthetase, putative (Trypanosoma brucei brucei, UniProt Q38C91).
T6 sequence (Q38C91 whole entry): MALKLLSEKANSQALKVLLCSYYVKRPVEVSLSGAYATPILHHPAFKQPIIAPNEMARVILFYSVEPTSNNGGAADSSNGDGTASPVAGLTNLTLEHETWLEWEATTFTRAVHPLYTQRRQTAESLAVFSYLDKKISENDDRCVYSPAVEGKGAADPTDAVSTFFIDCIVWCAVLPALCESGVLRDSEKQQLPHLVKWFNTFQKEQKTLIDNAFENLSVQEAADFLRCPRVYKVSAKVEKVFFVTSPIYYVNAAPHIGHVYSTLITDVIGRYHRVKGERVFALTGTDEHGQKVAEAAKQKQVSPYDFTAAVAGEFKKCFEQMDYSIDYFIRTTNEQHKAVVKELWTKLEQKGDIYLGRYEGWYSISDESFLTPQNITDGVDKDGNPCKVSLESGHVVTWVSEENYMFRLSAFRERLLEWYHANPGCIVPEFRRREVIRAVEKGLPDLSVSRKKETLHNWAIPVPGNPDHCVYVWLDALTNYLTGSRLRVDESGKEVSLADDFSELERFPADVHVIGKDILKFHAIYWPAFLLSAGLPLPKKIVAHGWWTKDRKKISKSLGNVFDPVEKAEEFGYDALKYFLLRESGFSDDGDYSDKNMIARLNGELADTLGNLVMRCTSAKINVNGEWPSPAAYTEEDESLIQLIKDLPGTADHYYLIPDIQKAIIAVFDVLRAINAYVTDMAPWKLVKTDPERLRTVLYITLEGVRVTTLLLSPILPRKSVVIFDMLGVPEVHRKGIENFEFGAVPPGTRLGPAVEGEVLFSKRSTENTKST
It counts as functional, Trypanosoma brucei brucei strain 927/4 GUTat10.1.

The target of assay [8] is T6, Methionyl-tRNA synthetase, putative. It counts as functional, Trypanosoma brucei brucei strain 927/4 GUTat10.1. This is another data set of the same source.
Assay [9] can be described thus: Counterscreen for activators of the function of SWI/SNF related, matrix associated, actin dependent regulator of chromatin, subfamily a, member 2 (SMARCA2, BRM): Luminescence-based cell-based high throughput dose response assay to identify non-selective compounds using the VP16 reporter assay. It counts as functional.
In assay [10] the target is SWI/SNF-related matrix-associated actin-dependent regulator of chromatin subfamily A member 2 (Homo sapiens, UniProt P51531). The experiment in a line: Luminescence-based cell-based high throughput dose response assay to identify activators of the function of SWI/SNF related, matrix associated, actin dependent regulator of chromatin, subfamily a, member 2 (SMARCA2, BRM). It is filed as functional.

Assay [11] is described as follows: HEK293T cell cytotoxicity, dose response, cytotoxicity control for HIV Vif inhibitor project, cherry-picks (AID 652208). It is filed as functional, cell-based.
Assay [12] concerns the target T7, Heat shock factor protein 1 (Mus musculus, UniProt P38532).
T7 sequence (P38532 whole entry): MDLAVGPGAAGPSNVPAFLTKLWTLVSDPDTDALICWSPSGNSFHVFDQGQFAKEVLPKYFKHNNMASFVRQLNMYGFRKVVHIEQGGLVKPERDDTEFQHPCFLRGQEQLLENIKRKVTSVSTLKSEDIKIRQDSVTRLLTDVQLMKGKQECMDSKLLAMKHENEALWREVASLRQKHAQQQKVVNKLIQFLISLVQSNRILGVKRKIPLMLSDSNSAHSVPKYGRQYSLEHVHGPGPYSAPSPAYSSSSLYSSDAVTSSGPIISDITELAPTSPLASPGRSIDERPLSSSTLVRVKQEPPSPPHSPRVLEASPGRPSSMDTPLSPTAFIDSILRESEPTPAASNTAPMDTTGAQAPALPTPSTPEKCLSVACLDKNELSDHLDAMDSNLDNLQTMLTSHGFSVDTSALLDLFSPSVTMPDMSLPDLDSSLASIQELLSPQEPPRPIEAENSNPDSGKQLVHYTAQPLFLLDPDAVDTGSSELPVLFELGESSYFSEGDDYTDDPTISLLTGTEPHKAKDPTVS
The experiment in a line: HSF1 potentiators in luciferase reporter cells, confirmation, cell-based, NIH3T3, luminescence, dose retest (AID 435004).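 Note: stress induced by proteasome inhibitor MG132 added 30 min after compound; luciferase reporter driven by HSF1 response element in NIH3T3 cells; actives raise luminescence as potentiators of the MG132 stress response.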 It counts as functional. (In a reporter assay the amount or activity of a reporter protein is the signal.)

Assay [13] can be described thus: Luminescence Cell-Based Dose Retest to Confirm Inhibitors of Cancer Stem Cells. [Related pubchem assays (depositor defined):AID2717, AID2721]. It is filed as functional. Conditions: Homo sapiens.
The next assay has as its target Mu-type opioid receptor (Homo sapiens, UniProt P35372). It is filed as functional, cell-based.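 Note: U2OS cells with beta-arrestin recruitment to OPRM1 by beta-gal complementation.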
In assay [14] the target is 5-hydroxytryptamine receptor 2A (Mus musculus, UniProt P35363). It is filed as functional, cell-based.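 Note: CHO-K1 cells with tagged receptor and beta-arrestin; agonist potency measured as compound-induced activation of the receptor.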
Assay [15] is described as follows: HEK293 cell viability, dose response, counter-screen for EBV LMP1 inhibitor project, dry powder, set 2 (AID 624374). It is filed as functional.

Chain of SWI/SNF-related matrix-associated actin-dependent regulator of chromatin subfamily A member 2 (P51531 whole entry): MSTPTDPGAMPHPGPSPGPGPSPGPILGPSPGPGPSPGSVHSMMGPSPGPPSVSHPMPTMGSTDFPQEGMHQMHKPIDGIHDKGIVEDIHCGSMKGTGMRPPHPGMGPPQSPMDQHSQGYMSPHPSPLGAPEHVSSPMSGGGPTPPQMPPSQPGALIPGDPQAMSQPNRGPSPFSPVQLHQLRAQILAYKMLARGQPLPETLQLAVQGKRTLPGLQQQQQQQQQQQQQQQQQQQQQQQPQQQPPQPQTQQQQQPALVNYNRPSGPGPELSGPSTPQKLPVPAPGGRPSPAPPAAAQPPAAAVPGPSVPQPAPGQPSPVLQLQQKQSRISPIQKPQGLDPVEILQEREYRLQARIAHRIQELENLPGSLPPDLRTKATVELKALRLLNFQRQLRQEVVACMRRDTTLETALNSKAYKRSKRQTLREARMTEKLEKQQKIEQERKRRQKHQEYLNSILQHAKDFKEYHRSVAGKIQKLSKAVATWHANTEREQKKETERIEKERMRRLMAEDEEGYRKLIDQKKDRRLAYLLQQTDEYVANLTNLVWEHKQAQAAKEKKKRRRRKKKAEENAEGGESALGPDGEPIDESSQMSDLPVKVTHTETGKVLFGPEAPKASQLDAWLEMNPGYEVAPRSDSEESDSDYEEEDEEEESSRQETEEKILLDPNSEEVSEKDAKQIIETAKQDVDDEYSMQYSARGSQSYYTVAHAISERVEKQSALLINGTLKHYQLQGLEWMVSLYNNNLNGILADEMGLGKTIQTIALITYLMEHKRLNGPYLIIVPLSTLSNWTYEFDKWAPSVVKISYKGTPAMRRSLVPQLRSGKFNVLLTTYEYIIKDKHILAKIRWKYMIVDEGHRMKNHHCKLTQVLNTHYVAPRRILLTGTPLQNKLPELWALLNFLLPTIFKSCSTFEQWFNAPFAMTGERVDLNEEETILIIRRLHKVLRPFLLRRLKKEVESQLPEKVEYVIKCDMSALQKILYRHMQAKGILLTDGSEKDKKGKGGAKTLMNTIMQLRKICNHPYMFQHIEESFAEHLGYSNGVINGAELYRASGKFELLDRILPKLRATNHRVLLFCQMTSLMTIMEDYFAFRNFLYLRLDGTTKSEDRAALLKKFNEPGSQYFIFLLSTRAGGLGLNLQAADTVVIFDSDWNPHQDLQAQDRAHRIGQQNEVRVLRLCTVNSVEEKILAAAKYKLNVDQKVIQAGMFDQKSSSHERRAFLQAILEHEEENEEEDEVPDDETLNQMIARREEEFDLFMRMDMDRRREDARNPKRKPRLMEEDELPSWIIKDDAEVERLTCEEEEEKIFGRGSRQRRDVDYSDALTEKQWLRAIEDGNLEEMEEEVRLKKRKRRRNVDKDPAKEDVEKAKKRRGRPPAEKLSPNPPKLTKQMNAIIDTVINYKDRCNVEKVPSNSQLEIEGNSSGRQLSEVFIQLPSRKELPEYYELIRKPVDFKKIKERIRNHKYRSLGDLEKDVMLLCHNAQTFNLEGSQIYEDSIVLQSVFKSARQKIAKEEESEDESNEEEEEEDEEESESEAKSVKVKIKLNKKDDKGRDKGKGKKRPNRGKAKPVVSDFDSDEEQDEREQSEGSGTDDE
Chain of 5-hydroxytryptamine receptor 2A (P35363 whole entry): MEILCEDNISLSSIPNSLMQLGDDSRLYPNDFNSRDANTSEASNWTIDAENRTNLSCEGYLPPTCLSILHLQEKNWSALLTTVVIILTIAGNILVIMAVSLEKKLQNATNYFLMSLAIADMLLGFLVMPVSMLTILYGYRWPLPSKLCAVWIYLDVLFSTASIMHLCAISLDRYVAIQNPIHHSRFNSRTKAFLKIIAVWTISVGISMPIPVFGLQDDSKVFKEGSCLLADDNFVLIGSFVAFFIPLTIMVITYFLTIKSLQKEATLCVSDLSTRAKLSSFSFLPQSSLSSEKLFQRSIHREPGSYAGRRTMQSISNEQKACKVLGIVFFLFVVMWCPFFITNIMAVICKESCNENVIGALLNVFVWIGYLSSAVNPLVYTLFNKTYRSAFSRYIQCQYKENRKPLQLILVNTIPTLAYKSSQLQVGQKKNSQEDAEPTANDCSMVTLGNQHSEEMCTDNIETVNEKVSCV
Chain of Mu-type opioid receptor (P35372 whole entry): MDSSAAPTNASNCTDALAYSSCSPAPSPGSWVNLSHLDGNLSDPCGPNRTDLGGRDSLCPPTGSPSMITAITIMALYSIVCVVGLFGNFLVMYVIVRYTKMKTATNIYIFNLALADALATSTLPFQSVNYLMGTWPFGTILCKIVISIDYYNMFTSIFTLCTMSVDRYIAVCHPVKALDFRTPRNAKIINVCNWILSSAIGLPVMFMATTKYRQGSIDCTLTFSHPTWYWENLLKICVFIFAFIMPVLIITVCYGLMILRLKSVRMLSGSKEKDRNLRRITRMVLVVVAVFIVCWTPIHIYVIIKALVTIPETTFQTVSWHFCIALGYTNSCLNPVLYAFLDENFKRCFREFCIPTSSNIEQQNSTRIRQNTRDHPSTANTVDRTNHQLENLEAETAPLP

Usually IC50 stands for the point on the concentration scale where inhibition reaches its midpoint. For orientation: AC50 means the concentration at which the activity in the assay is half-maximal. In the case of `O=C1OC(Nc2cc(Br)cc3cccnc23)c2ccccc21` (stereo not given), the half-maximal inhibitory concentration (IC50) in assay [1] was 8.4 µM (active); in [2] it was 1.79 µM (active); in [3], 1.63 µM (active); in assay [4], < 1.55 µM (active); in [5], > 100 µM (inactive); on Caspase-3 it was 2.67 µM (active). The concentration at half-maximal activity (AC50) at Caspase-6 is 11.1 µM (active).

For the compound `Oc1nc(CSc2ncc(C(F)(F)F)cc2Cl)nc2ccccc12`, the IC50 was 35.7 µM (inactive) in assay [6], 14.4 µM (inactive) in assay [7] and 5.35 µM (active) in assay [8].

For the compound `Brc1ccc2[nH]c3c(NCc4ccccn4)ncnc3c2c1`, the figures for the IC50 in assay [6], in [7] and in [8] were 83.3 µM (inactive), 5.71 µM (active) and 3.47 µM (active), respectively.

One may read the EC50 as the concentration that produces a half-maximal response. With `N#CCn1cnc2sc(-c3ccccc3)cc2c1=O`, the EC50 in [9] and in [10] was > 91.2 µM (inactive) each time.

With `CC(C)(C)CC(=O)O/N=C(\N)c1ccccn1`, the EC50 in assay [9] and in assay [10] was > 91.1 µM (inactive) in each case.

As to `O=C(COC(=O)/C=C/C(=O)OCC(=O)Nc1ccccc1F)Nc1ccccc1F`, the concentration at half-maximal activity (AC50) in assay [11] is 44.3 µM (active); in assay [13], 7.02 µM (active). Besides, in assay [12], the EC50 was 11.1 µM (active).

Take `CCOc1ccc(CN2CCN(C(=O)c3ccco3)CC2)cc1`: the EC50 at Mu-type opioid receptor was 92.5 µM (inactive); in [14], 0.965 µM (active).

For the compound `CC12CCC(C(=O)N(CCCCN3CCN(c4ccccn4)CC3)C1=O)C2(C)C` (stereo not given), the figures for the EC50 (on Mu-type opioid receptor; in assay [14]) were 92.5 µM (inactive) and 0.0105 µM (active), respectively.

`N#C[C@H]1[C@@H](c2ccc(-c3cccnc3)cc2)[C@@H](CO)N1C(=O)Nc1ccc(F)cc1`: the AbsAC35 in [15] was determined as 162.11 µM.
